Test results taken from ChEMBL document CHEMBL1255459, “Identification and characterization of CTX-M-producing Shigella isolates in the United States” (2010).
Values after ≈ are worked out from the molar mass of the structure shown.

How the values were obtained:
Type in all cases: functional
Shigella sonnei [1] = assay: Antimicrobial activity against Shigella sonnei isolate AM22451 by broth microdilution method
Shigella [2] = assay: Antimicrobial activity against Shigella isolate DH-22451 by broth microdilution method
Shigella sonnei [3] = assay: Antimicrobial activity against Shigella sonnei isolate AM20369 by broth microdilution method
Shigella [4] = assay: Antimicrobial activity against Shigella isolate DH-26336 by broth microdilution method
Shigella sonnei [5] = assay: Antimicrobial activity against Shigella sonnei isolate AM22855 by broth microdilution method
Shigella flexneri [6] = assay: Antimicrobial activity against Shigella flexneri isolate AM26336 by broth microdilution method
Shigella flexneri [7] = assay: Antimicrobial activity against Shigella flexneri isolate AM19035 by broth microdilution method
Shigella [8] = assay: Antimicrobial activity against Shigella isolate DH-19035 by broth microdilution method
Shigella [9] = assay: Antimicrobial activity against Shigella isolate DH-22855 by broth microdilution method
Shigella flexneri [10] = assay: Antimicrobial activity against Shigella flexneri isolate AM13291 by broth microdilution method
Shigella [11] = assay: Antimicrobial activity against Shigella isolate DH-13291 by broth microdilution method
Shigella [12] = assay: Antimicrobial activity against Shigella isolate DH-20369 by broth microdilution method

Row | Structure (SMILES) | MIC (Shigella sonnei [1]) | MIC (Shigella [2]) | MIC (Shigella sonnei [3]) | MIC (Shigella [4]) | MIC (Shigella sonnei [5]) | MIC (Shigella flexneri [6]) | MIC (Shigella flexneri [7]) | MIC (Shigella [8]) | MIC (Shigella [9]) | MIC (Shigella flexneri [10]) | MIC (Shigella [11]) | MIC (Shigella [12])
1 | CO/N=C(\C(=O)N[C@@H]1C(=O)N2C(C(=O)[O-])=C(C[N+]3(C)CCCC3)CS[C@H]12)c1csc(N)n1 [CEFEPIME] | 8 mg/L (≈ 16.6 µM) | 16 mg/L (≈ 33.3 µM) | 8 mg/L (≈ 16.6 µM) | 4 mg/L (≈ 8.32 µM) | 8 mg/L (≈ 16.6 µM) | 2 mg/L (≈ 4.16 µM) | 2 mg/L (≈ 4.16 µM) | 4 mg/L (≈ 8.32 µM) | 16 mg/L (≈ 33.3 µM) | 2 mg/L (≈ 4.16 µM) | 4 mg/L (≈ 8.32 µM) | 16 mg/L (≈ 33.3 µM)
2 | CC(C)(O/N=C(\C(=O)N[C@@H]1C(=O)N2C(C(=O)[O-])=C(C[n+]3ccccc3)CS[C@H]12)c1csc(N)n1)C(=O)O [CEFTAZIDIME] | 8 mg/L (≈ 14.6 µM) | 32 mg/L (≈ 58.5 µM) | 8 mg/L (≈ 14.6 µM) | 4 mg/L (≈ 7.32 µM) | 8 mg/L (≈ 14.6 µM) | 0.5 mg/L (≈ 0.915 µM) | 0.5 mg/L (≈ 0.915 µM) | 2 mg/L (≈ 3.66 µM) | 16 mg/L (≈ 29.3 µM) | 0.5 mg/L (≈ 0.915 µM) | 2 mg/L (≈ 3.66 µM) | 16 mg/L (≈ 29.3 µM)
3 | CO/N=C(\C(=O)N[C@@H]1C(=O)N2C(C(=O)O)=C(COC(C)=O)CS[C@H]12)c1csc(N)n1 [CEFOTAXIME] | 64 mg/L (≈ 141 µM) | 128 mg/L (≈ 281 µM) | 64 mg/L (≈ 141 µM) | 64 mg/L (≈ 141 µM) | 64 mg/L (≈ 141 µM) | 8 mg/L (≈ 17.6 µM) | 32 mg/L (≈ 70.3 µM) | 64 mg/L (≈ 141 µM) | 64 mg/L (≈ 141 µM) | 8 mg/L (≈ 17.6 µM) | 32 mg/L (≈ 70.3 µM) | 128 mg/L (≈ 281 µM)
4 | CO/N=C(\C(=O)N[C@@H]1C(=O)N2C(C(=O)O)=C(CSc3nc(=O)c(O)nn3C)CS[C@H]12)c1csc(N)n1 [CEFTRIAXONE] | > 64 mg/L | > 64 mg/L | 64 mg/L (≈ 115 µM) | 32 mg/L (≈ 57.7 µM) | 64 mg/L (≈ 115 µM) | 16 mg/L (≈ 28.9 µM) | 32 mg/L (≈ 57.7 µM) | 32 mg/L (≈ 57.7 µM) | > 64 mg/L | 16 mg/L (≈ 28.9 µM) | 32 mg/L (≈ 57.7 µM) | > 64 mg/L
